From patent publication US7541375B2, “Azole derivatives and pharmaceutical compositions containing them” (Laboratoires Serono SA, priority 2001, dated 2009)
Several values for one entry are separate records, joined by “and”; a condition that tells them apart may be missing. Identical values can stand only once.

Experiments:
[1] = target: MEK-1 (constitutively active MEK1EE) (Homo sapiens, UniProt Q02750, S218E/S222E); test: MEK-1 enzyme assay (HTRF, phosphorylation of ERK2K52A); type: biochemical; settings: 3 μM ATP, 2 hours room temperature
MEK-1 (constitutively active MEK1EE), sequence (Q02750 whole entry S218E/S222E, species assumed): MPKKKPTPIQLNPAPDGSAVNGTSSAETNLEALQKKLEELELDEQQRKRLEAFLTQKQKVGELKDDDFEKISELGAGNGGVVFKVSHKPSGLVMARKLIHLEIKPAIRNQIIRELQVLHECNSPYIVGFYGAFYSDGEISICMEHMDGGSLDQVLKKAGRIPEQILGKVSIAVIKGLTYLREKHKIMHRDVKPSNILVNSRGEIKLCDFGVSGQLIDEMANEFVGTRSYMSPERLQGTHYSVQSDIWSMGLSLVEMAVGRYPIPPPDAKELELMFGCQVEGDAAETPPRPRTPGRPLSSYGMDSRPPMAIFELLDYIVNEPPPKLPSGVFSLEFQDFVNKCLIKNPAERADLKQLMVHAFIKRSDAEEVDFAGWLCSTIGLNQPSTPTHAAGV
Procedure: A 50 μl mixture containing 15 nM constitutively active MEK1EE and 300 nM of ERK2K52A were incubated either in the presence or absence of the compounds of the invention in 1% DMSO and 1× kinase buffer containing 3 μM ATP, […], […], 1 mM DTT and 100 μM Na3VO4 in Wallac 96 well black plates for 2 hours at room temperature. At the end of the incubation the enzyme reaction was quenched by adding 50 μl of assay buffer containing […] Tris-HCl, 50 mM EDTA, 0.1% BSA and a mixture of 1.25 μg/ml europium labeled anti-phosphotyrosine mAb and 5 μg/ml allophycocyanin labeled (APC) anti-GST antibody. Plates were agitated on a plate shaker for 30 minutes and phosphorylation of the ERK2K52A substrate was measured by homogenous time resolved fluorescence (HTRF) at 340 nm excitation and […] emission filters on the VICTOR V fluorescence plate reader. The results are of phosphorylation of ERK-2, with inhibition occurring at the MEK-1 level. Results were as follows for the specified compounds: […]

[2] = target: MEK-1/ERK-2 (Homo sapiens, UniProt Q02750, S218E/S222E); test: MEK-1/ERK-2 enzyme cascade assay (33P incorporation into MBP biotin); type: biochemical; settings: 3 μM ATP, phosphorylation of myelin basic protein
MEK-1/ERK-2, sequence (Q02750 whole entry S218E/S222E): as the sequence (Q02750 whole entry S218E/S222E, species assumed) above
Procedure: MEK-1/ERK-2 Enzyme Cascade Assay
A 50 μl mixture containing 40 nM of constitutively active MEK1EE, 160 nM of ERK2 and 10 μM MBP biotin were incubated in the presence or absence of the below compound of the invention in 1% DMSO and 1× kinase buffer containing 3 μM ATP, 50 mM Tris-HCl pH 8.0, 10 mM MgCl2, 1 mM DTT, 100 μM Na3VO4 and […] ^33P-γATP in Wallac 96 well white plates for 2 hours at room temperature. At the end of the incubation the enzyme reaction was quenched by adding 200 μl Phosphate buffered saline (PBS) solution containing 1.25 mg/ml Streptavidin SPA beads, 50 mM EDTA and 0.1% Triton 100 and incubated further for 12-14 hours at room temperature. ^33P-γATP incorporation into MBP biotin was measured using the top counts. The assay read-out is phosphorylation of myelin basic protein, which is a representative substrate of ERK-2-phos. This assay is a further confirmatory screen of the assay of Example 38 above.

[3] = tested on: murine colon carcinoma C26 cells; test: Growth of tumors induced in CDF1 mice with murine colon carcinoma C26 cells; type: in vivo
Procedure: The aim of this study was to evaluate the effects of Example No. 30 in FIG. 1: […] Control group (empty circles) was treated with NP3S (5% N-methylpyrrolidone/30% PEG400/25% PEG200/20% Propylene Glycol in Saline) per os bid. […] Drugs treatment started 8 days following C26 cell injection and then continued for 13 days. […] Tumor volume and body weight were monitored every three days from day 8 until day 20.

[4] = tested on: TNF release (TNF-α); test: Inhibition of TNF-alpha production in LPS-stimulated mice; type: in vivo; settings: −15 mn before LPS
Procedure: Injection of lipopolysaccharide (LPS) induces a rapid release of soluble tumor necrosis factor (TNF-α) into the periphery. This model is used to identify potential blockers of TNF release in vivo
The potency of compounds of the invention as inhibitors of serum TNFα elevation in mice treated with LPS is determined as follows:
• For per oral (p.o.) administration, compounds of the invention are formulated in 0.5% carboxymethyl cellulose/0.25% Tween 80 in saline and given orally via gavage […] to LPS administration. Dexamethasone is used as the reference compound and given at 0.1 mg/kg per orally. • C3/hen female mice (Iffa-Credo, France) are injected intraperitoneally with 0.3 mg/kg LPS (Escherichia coli, Serotype 0111:B4, Sigma Chemical Co., St. Louis, Mo.) and sacrificed 90 min later by CO2 asphyxiation. Blood is immediately taken from caudal vena cava and plasma prepared and frozen at −80° C. Each group of treatment contained 6 animals.

[5] = tested on: Breast cancer MCF-7 cells; test: MCF-7 tumor cell proliferation assay; type: cell-based; settings: MCF-7, ATP lite cell proliferation kit
[6] = tested on: ovarian cancer OVCAR-3 cells; test: OVCAR-3 tumor cell proliferation assay; type: cell-based; settings: OVCAR-3, ATP lite cell proliferation kit
[7] = tested on: Colon 205 cell (ATCC CCL-222); test: Colon 205 cell anti-proliferation assay; type: cell-based; settings: Colon 205 cells, 2×10^3 cells/well
Procedure: (§1) Compounds of the invention were tested for anti-proliferation activity against colon tumors (Colo205, HT-29, C26 and SW660 cell lines) by procedures described in Example 40 above. 2×10^3 cells/well used.

[8] = tested on: HT-29 cell (ATCC HTB-38); test: HT-29 cell anti-proliferation assay; type: cell-based; settings: HT-29 cells, 2×10^3 cells/well
Procedure: as §1

[9] = tested on: SW 660 cell (ATCC CCL-227); test: SW 660 cell anti-proliferation assay; type: cell-based; settings: SW 660 cells, 2×10^3 cells/well
Procedure: as §1

[10] = tested on: Colon C26 cell; test: Colon C26 cell anti-proliferation assay; type: cell-based, murine; settings: Colon C26 cells, 2×10^3 cells/well
Procedure: as §1

[11] = tested on: Breast Adeno Carcinoma (MCF-7 cell line); settings: MCF-7 cell line (Example 42)
Procedure: (§2) Breast cancer MCF-7 cells or ovarian cancer OVCAR-3 cells were plated in 96 well Packard white plates at 4×10^3 cells/well and cultured overnight at 37° C. in 5% CO2. The below specified test compounds were serially diluted in 100% DMSO and subsequently added to cells to reach a final concentration of 0.5% DMSO. MCF-7 and OVCAR-3 (ATCC HTB-161) plates were incubated for an additional 4 to 5 days respectively at 37° C. and 5% CO2 and cell proliferation was quantitated using the ATP lite cell proliferation kit (Packard).
(§3) (R) 4-iodo-benzoic acid 1-imidazol-1-yl methyl-2-phenoxy-ethyl ester (Example No. 1) was tested for anti-proliferation activity against additional tumor cell types as specified below by procedures described in Example 39 above. American Type Culture Collection (ATCC) deposit numbers are indicated below for many of the tested cell types. Results express, as follows, the concentration of compound of the invention (μM) required to inhibit the proliferation of the tumor cells by 50 percent relative untreated controls (i.e. IC50 (μM)).

[12] = tested on: Breast Ductal Carcinoma (T47D cell line; ATCC HTB-133)
Procedure: as §2, §3

[13] = tested on: Chronic Myelogenous Leukemia (K562 cell line; ATCC CCL-243)
Procedure: as §2, §3

[14] = tested on: Colon Adeno Carcinoma (DLD-1 cell line; ATCC CCL-221)
Procedure: as §2, §3

[15] = tested on: Colon Adeno Carcinoma (Grade II) (HT-29 cell line; ATCC HTB-38); settings: HT-29 cell line (Example 42)
Procedure: as §2, §3

[16] = tested on: Kidney Adeno Carcinoma (ACHN cell line; ATCC CRL-1611)
Procedure: as §2, §3

[17] = tested on: Kidney Carcinoma (A498 cell line; ATCC HTB-44)
Procedure: as §2, §3

[18] = tested on: Lung Carcinoma (A549 cell line; ATCC CCL-185)
Procedure: as §2, §3

[19] = tested on: Lung Carcinoma (PC-6 cell line)
Procedure: as §2, §3

[20] = tested on: Malignant Melanoma (SK-MEL-5 cell line; ATCC HTB-70)
Procedure: as §2, §3

[21] = tested on: Neuroepithelioma (SK-N-MC cell line; ATCC HTB-10)
Procedure: as §2, §3

[22] = tested on: Pancreatic Carcinoma (MIA PaCa-2 cell line; ATCC CRL-1420)
Procedure: as §2, §3

[23] = tested on: Pancreatic Epithelioid Carcinoma (PANC-1 cell line; ATCC CRL-1469)
Procedure: as §2, §3

[24] = tested on: Promyelocytic Leukemia (HL-60 cell line; ATCC CRL-240)
Procedure: as §2, §3

[25] = tested on: Prostate Adenocarcinoma (PC-3 cell line; ATCC CRL-1435)
Procedure: as §2, §3

[26] = tested on: primary rat granulosa cell; settings: compound at 10 nM to 100 nM in the presence of picomolar FSH (2 to 5 picomolar)
Procedure: Cells were plated at 5000, 8,000 and 20,000 cells/well/200 μl of GAB medium on poly-D-lysine coated 96-well tissue culture plates. Plates were incubated at 37° C. in a 5% CO/95% air incubator for 3 days. […] The compound of the invention and picomolar FSH were then added to the cultures. Cells were incubated @ 37° C. in 5% CO2. Three days later, cell supernatants were collected and diluted 1:100 in GAB medium for measurement of estradiol by RIA. The RIA was performed according to manufacturer directions except that an estradiol standard was prepared in absolute ethanol at 100 ng/ml and then further diluted in GAB medium, instead of kit buffer.

COc1ccc(C(=O)OC(COc2ccccc2)Cn2ccnc2)cc1 (racemic) [4-methoxy-benzoic acid 1-imidazol-1-yl methyl-2-phenoxy-ethyl ester (racemic), 4-methoxy-benzoic acid 1-imidazol-1-yl methyl-2-phenoxy-ethyl ester]
IC50 [1]: 1.63 ± 0.241 µM | IC50 [2]: 1.78 ± 0.254 µM

O=P1(N(CCCl)CCCl)NCCCO1 (stereo not shown) [Cyclophosphamide, reference compound]
inhibition of tumor growth at day 20 ([3]; 50 mg/kg s.c. every third day, 5 treatments, day 20): 73% | tumor growth (tumor volume) ([3]; 50 mg/kg s.c. every third day, day 11 until day 20 (p<0.001)): significantly slowed down tumor growth | tumor-associated loss in body weight ([3]; 50 mg/kg s.c. every third day, from day 11): markedly prevented

C[C@@H]1C[C@H]2[C@@H]3CCC4=CC(=O)C=C[C@]4(C)[C@@]3(F)[C@@H](O)C[C@]2(C)[C@@]1(O)C(=O)CO [Dexamethasone, reference compound]
TNF Release vs LPS inj. % of inhibition Mean ± SEM ([4]; 0.1 mg/kg p.o.): 86 ± 6% and 88 ± 1%

O=C(OC(COc1ccccc1)Cn1ccnc1)c1ccc(I)cc1 (stereo not shown) [Example 1, 4-Iodo-benzoic acid 1-imidazol-1-yl methyl-2-phenoxy-ethyl ester]
IC50 [1]: 0.039 ± 0.012 µM | IC50 [2]: 0.036 ± 0.008 µM | IC50 [5]: 15 ± 7.1 µM | IC50 [6]: 25 µM | IC50 [7]: 1.4 µM | IC50 [8]: 3.5 µM | IC50 [9]: 2.1 µM | IC50 [10]: 2.33 µM | IC50 [11]: 33 µM | IC50 [12]: 11 µM | IC50 [13]: 33 µM | IC50 [14]: 36 µM | IC50 [15]: 4 µM | IC50 [16]: > 100 µM | IC50 [17]: 54 µM | IC50 [18]: 25 µM | IC50 [19]: 43 µM | IC50 [20]: 11 µM | IC50 [21]: 6.7 µM | IC50 [22]: 3.1 µM | IC50 [23]: > 100 µM | IC50 [24]: 3.6 µM | IC50 [25]: 24 µM | estradiol production [26]: induces estradiol production

COc1ccc(C(=O)O[C@@H](COc2ccccc2)Cn2ccnc2)cc1 [Example 6, (R)-4-Methoxy-benzoic acid 1-imidazol-1-yl methyl-2-phenoxy-ethyl ester]
IC50 [1]: 0.86 ± 0.093 µM | IC50 [2]: 0.92 ± 0.174 µM | IC50 ([5]; Homo sapiens, MCF7): 32.5 ± 3.5 µM | IC50 ([6]; Homo sapiens): 40 µM | IC50 [7]: 22.5 µM | IC50 ([8]; Homo sapiens): 27.5 µM | IC50 [9]: 20 µM

O=C(OC(COc1ccc([N+](=O)[O-])cc1)Cn1ccnc1)c1ccc(I)cc1 (stereo not shown) [Example 18, 4-Iodo-benzoic acid 2-imidazol-1-yl-1-(4-nitro-phenoxymethyl)-ethyl ester]
IC50 [1]: 0.015 µM | IC50 ([10]; Mus musculus): 0.57 µM

O=C(O[C@@H](COc1cccnc1)Cn1ccnc1)c1ccc(I)cc1 [Example 22, 4-Iodo-benzoic acid 1-imidazol-3-yl methyl-2-(pyridin-3-yloxy)-ethyl ester]
IC50 [1]: 0.011 µM | IC50 ([10]; Mus musculus): 1.08 µM

O=C(N[C@@H](COc1ccccc1)Cn1ccnc1)c1ccc(I)cc1 [Example 27, N-(1-imidazol-1-ylmethyl-2-phenoxy-ethyl)-4-iodo-benzamide]
IC50 [1]: 0.092 µM | IC50 [2]: 0.085 µM | IC50 ([6]; Homo sapiens): 50 µM | IC50 [7]: 2.1 µM | IC50 ([8]; Homo sapiens): 2.8 µM | IC50 [9]: 2.2 µM | TNF Release vs LPS inj. % of inhibition Mean ± SEM ([4]; 12.5 mg/kg p.o.): 32 ± 5% | TNF Release vs LPS inj. % of inhibition Mean ± SEM ([4]; 50 mg/kg p.o.): 39 ± 3%

O=C(NC(COc1ccc(F)cc1)Cn1ccnc1)c1ccc(I)cc1 (stereo not shown) [Example 30, N-[2-(4-Fluoro-phenoxy)-1-imidazol-1-ylmethyl-ethyl]-4-iodo-benzamide]
IC50 [1]: 0.021 µM | TNF Release vs LPS inj. % of inhibition Mean ± SEM ([4]; 12.5 mg/kg p.o.): 77 ± 2% | TNF Release vs LPS inj. % of inhibition Mean ± SEM ([4]; 50 mg/kg p.o.): 85 ± 3% | tumor-induced body weight loss ([3]; 50 mg/kg p.o. bid): significant prevention of tumor-induced body weight loss | tumor-induced body weight loss ([3]; 100 mg/kg p.o. bid): significant prevention of tumor-induced body weight loss | inhibition of tumor growth rate evaluated at day 20 ([3]; 100 mg/kg p.o. bid, day 20, vs NP3S control): 37% | tumor growth vs NP3S control group ([3]; 100 mg/kg p.o. bid, significant from day 11 to day 20): reduced tumor growth

O=C(NC(COc1ccc(F)cc1)Cn1ccnc1Cl)c1ccc(I)cc1 (stereo not shown) [Example 34, N-[1-(2-Chloro-imidazol-1-ylmethyl)-2-(4-fluoro-phenoxy)-ethyl]-4-iodo-benzamide]
IC50 ([10]; Mus musculus): 1.25 µM

N#Cc1ccc(OCC(Cn2ccnc2Cl)NC(=O)c2ccc(I)cc2)cc1 (stereo not shown) [Example 35, N-[1-(2-Chloro-imidazol-1-ylmethyl)-2-(4-cyano-phenoxy)-ethyl]-4-iodo-benzamide]
IC50 ([10]; Mus musculus): 0.3 µM
